Data on five compounds can be found in ChEMBL document CHEMBL1158663, “New acetylenes isolated from the bark of Heisteria acuminata” (J Nat Prod, 1998).

The species entered for assay [1] is Ovis aries. The assay can be described thus: Inhibition of COX in sheep seminal vesicle microsome assessed as reduction in PGE2 concentration at 13 uM relative to control. Format: microsomes.
For assay [2], the species on record is Sus scrofa. In words: Inhibition of 5-LO from pig leukocytes at 5 uM.
For assay [3], the species on record is Ovis aries. In words: Inhibition of COX in sheep seminal vesicle microsome assessed as reduction in PGE2 concentration at 6.5 uM relative to control. The format is microsomes.

As usually defined, the inhibition is the relative decrease from the control value, in per cent. Turning to `CCCC/C=C\C#CC#CCCCCCC(=O)O`, the inhibition came out at 51% in assay [1], 45% in assay [2] and 36% in assay [3].

As for `CCCCC#CC#CC#CCCCCC(=O)O`, the inhibition turned out to be 55% in assay [1], 18% in assay [2] and 36% in assay [3].

In the case of `CCCCCC#CC#CC#CCCCCCCC(=O)O`, the inhibition in assay [1] worked out at 45%; in assay [2] it was 21%; in assay [3] it was 33%.

`CCCC/C=C/C#CC#CCCCCC(=O)O`: the figures for the inhibition in assay [1], in assay [2] and in assay [3] were 56%, 14% and 44%, respectively.

`CCCCC/C=C\CC#CC#CCCCCCC(=O)O`: the inhibition turned out to be 56% in assay [1], 55% in assay [2] and 40% in assay [3].
